What was measured:
Type in all cases: functional, cell-based
[1] = test system: A2780cisR; experiment: The compound was evaluated for the cytotoxicity against human A2780cisR (ovarian) tumor cell lines.
[2] = test system: A2780; experiment: The compound was evaluated for the cytotoxicity against human A2780 (ovarian) tumor cell lines.
[3] = test system: CH1; experiment: The compound was evaluated for the cytotoxicity against human CH1 (ovarian) tumor cell lines.
[4] = test system: HT-29; experiment: The compound was evaluated for the cytotoxicity against human HT-29 (colon) tumor cell lines.
[5] = test system: SK-OV-3; experiment: The compound was evaluated for the cytotoxicity against human SKOV-3 (ovarian) tumor cell lines.

| Molecule | IC50 ([1]; Homo sapiens, A2780cisR) [nM] | IC50 [2] [nM] | IC50 [3] [nM] | IC50 ([4]; Homo sapiens, HT-29) [nM] | IC50 [5] [nM] | IC50 ([1]; a2780cisr) [nM] | IC50 ([4]; ht-29) [nM] |
| --- | --- | --- | --- | --- | --- | --- | --- |
| CCOC(=O)[C@@H](NC(=O)[C@@H](OC(=O)c1ccc(C)c2cc(OC)ccc12)[C@]1(C)CO1)C(C)C | 560 | 350 | 315 | 2250 | 2950 |  |  |
| CC1([C@H](OC(=O)c2cccc3ccccc23)C(N)=O)CC1 | > 25000 | > 25000 | > 25000 | > 25000 | > 25000 |  |  |
| CO[C@@]12[C@H](COC(N)=O)C3=C(C(=O)C(C)=C(N)C3=O)N1C[C@@H]1N[C@@H]12 [MITOMYCIN] | 60 | 50 | 40 | 40 | 200 |  |  |
| CISPLATIN |  |  |  |  |  | 3000 | 1700 |
| COc1cc(C(=O)O[C@H](C(N)=O)[C@]2(C)CO2)c2cccc(C)c2c1 | 76 | < 50 | < 50 | 330 | 1250 |  |  |
| CCOc1cc(C(=O)O[C@H](C(N)=O)[C@]2(C)CO2)c2cccc(C)c2c1 | 3500 | 1800 | 1400 | 4300 | 12000 |  |  |
| COc1cc(C(=O)O[C@H](C(N)=O)[C@@]2(C)CO2)c2cccc(C)c2c1 | 155 | 58 | 62 | 610 | 2300 |  |  |
| C[C@@]1([C@H](OC(=O)c2ccc3ccccc3c2)C(N)=O)CO1 | 1350 | 390 | 170 | 2600 | 13000 |  |  |
| CCOC(=O)CNC(=O)[C@@H](OC(=O)c1cc(OC)cc2c(C)cccc12)[C@]1(C)CO1 | 830 | 340 | 260 | 2250 | 7300 |  |  |
| C[C@@]1([C@H](OC(=O)c2cnc3ccccc3n2)C(N)=O)CO1 | > 25000 | > 25000 | > 25000 | > 25000 | > 25000 |  |  |
| C[C@@]1([C@H](OC(=O)c2ccccc2)C(N)=O)CO1 | > 25000 | 20500 | > 25000 | > 25000 | > 25000 |  |  |
| C[C@@]1([C@H](OC(=O)c2cccc3ccccc23)C(N)=O)CO1 | 1100 | 440 | 550 | 2150 | 5100 |  |  |

— ChEMBL document CHEMBL1133374, “Chemical synthesis and cytotoxicity of some azinomycin analogues devoid of the 1-azabicyclo[3.1.0]hexane subunit” (Bioorg Med Chem Lett, 2000)
